From patent US6084074A, “Stabilized aqueous liquid preparations of blood coagulation factor XIII” (Centeon Pharma GmbH, priority 1995, dated 2000)
Blank lines part the entries; values can stand above or below the molecule they belong to.

Assays:
[1] = tested on: human blood coagulation factor XIII; assay: optimum concentration of stabilizers: residual factor XIII activity after 60° C. for 30 minutes (Example 1); format: physicochemical
Text: As for the measuring methods of factor XIII activity, fibrin formation, transglutaminase activity measurement, and immunologic measurement of antigen amount can be mentioned. Herein, the dansylcadaverine method (Nishida J., et al. Thromb. Res., vol. 36 pp. 123-131 (1984)) was adopted which can determine quantitatively the active factor XIII with high accuracy. Dansylcadaverine (purchased from YATRON) is a fluorescent amine which is the substrate of factor XIII, and forms dansylcadaverine-casein complex with casein by the action of factor XIII; the complex is separated by gel-filtration after the reaction and the factor XIII activity can be determined by the fluorescence intensity of the complex. The factor XIII activity is expressed by units; one unit is the amount of factor XIII which is contained in one milliliter of normal human plasma.
Optimum concentration of the present stabilizers was investigated.
To factor XIII produced according to the recombinant DNA technology as disclosed in DE 3804890 Al and incorporated by reference herein, (adjusted to the final titer of 100 units/ml with the water for injection according to the Pharmacopoeia of Japan) was added galactose, sucrose, D-sorbitol, sodium L-glutamate, sodium L-aspartate or L-histidine, and the mixture was warmed in a hot water bath at 60° C. for 30 minutes and then the activity of factor XIII was determined. Residual activity rate (%) of factor XIII was calculated, defining as 100% factor XIII activity of the preparation wherein factor XIII solution was adjusted to a titer of 100 units/ml.

[2] = tested on: factor XIII prepared by recombinant DNA technology; assay: storage stabilizer effect on factor XIII prepared by recombinant DNA technology; format: physicochemical, human

Molecule: OC[C@@H](O)[C@@H](O)[C@H](O)[C@@H](O)CO [D-Sorbitol]
effective concentration of stabilizer [1]: 1.25-40 w/v % | Residual Activity Rate ([1]; additive conc. 1.25 w/v %): 73.8% | Residual Activity Rate ([1]; additive conc. 2.5 w/v %): 73.9% | Residual Activity Rate ([1]; additive conc. 5.0 w/v %): 74.5% | Residual Activity Rate ([1]; additive conc. 10 w/v %): 94.0% | Residual Activity Rate ([1]; additive conc. 15 w/v %): 98.4% | Residual Activity Rate ([1]; additive conc. 20 w/v %): 96.0% | Residual Activity Rate ([1]; additive conc. 40 w/v %): 86.9%

Molecule: NCC(=O)O [Glycine]
effect as storage stabilizer (in words) [2]: ineffective

Residual Activity Rate ([1]; additive conc. 0.125 w/v %): 62.2% | Residual Activity Rate ([1]; additive conc. 0.25 w/v %): 71.6% | Residual Activity Rate ([1]; additive conc. 0.5 w/v %): 78.4% | Residual Activity Rate ([1]; additive conc. 1.0 w/v %): 97.4% | Residual Activity Rate ([1]; additive conc. 2.0 w/v %): 65.3%
Molecule: N[C@@H](Cc1c[nH]cn1)C(=O)O [L-Histidine, L-histidine]

Molecule: N[C@@H](CC(=O)[O-])C(=O)[O-].[Na+].[Na+] [Sodium L-aspartate, sodium L-aspartate]
Residual Activity Rate ([1]; additive conc. 0.125 w/v %): 83.3% | Residual Activity Rate ([1]; additive conc. 0.25 w/v %): 80.9% | Residual Activity Rate ([1]; additive conc. 0.5 w/v %): 93.3% | Residual Activity Rate ([1]; additive conc. 1.0 w/v %): 101.1% | Residual Activity Rate ([1]; additive conc. 2.0 w/v %): 66.5% | Residual Activity Rate ([1]; additive conc. 5.0 w/v %): 58.8% | Residual Activity Rate ([1]; additive conc. 10 w/v %): 55.4%

Molecule: N[C@@H](CCC(=O)[O-])C(=O)[O-].[Na+].[Na+] [Sodium L-glutamate, sodium L-glutamate]
Residual Activity Rate ([1]; additive conc. 0.125 w/v %): 76% | Residual Activity Rate ([1]; additive conc. 0.25 w/v %): 71.1% | Residual Activity Rate ([1]; additive conc. 0.5 w/v %): 98.6% | Residual Activity Rate ([1]; additive conc. 1.0 w/v %): 92.5% | Residual Activity Rate ([1]; additive conc. 2.0 w/v %): 87.8% | Residual Activity Rate ([1]; additive conc. 5.0 w/v %): 79.4% | Residual Activity Rate ([1]; additive conc. 10 w/v %): 65.3%

effective concentration of stabilizer [1]: 1.25-40 w/v % | Residual Activity Rate ([1]; additive conc. 1.25 w/v %): 86.7% | Residual Activity Rate ([1]; additive conc. 2.5 w/v %): 88.6% | Residual Activity Rate ([1]; additive conc. 5.0 w/v %): 90.0% | Residual Activity Rate ([1]; additive conc. 10 w/v %): 99.0% | Residual Activity Rate ([1]; additive conc. 15 w/v %): 100.0% | Residual Activity Rate ([1]; additive conc. 20 w/v %): 96.2% | Residual Activity Rate ([1]; additive conc. 40 w/v %): 75.7%
Molecule: OC[C@H]1O[C@@](CO)(O[C@H]2O[C@H](CO)[C@@H](O)[C@H](O)[C@H]2O)[C@@H](O)[C@@H]1O [Sucrose]

effect as storage stabilizer (in words) [2]: ineffective
Molecule: C[C@H](N)C(=O)O [alanine]

effect as storage stabilizer (in words) [2]: ineffective
Molecule: NC(=O)CC[C@H](N)C(=O)O [glutamine]

Molecule: O=C(O)[C@@H]1C[C@@H](O)CN1 [hydroxyproline]
effect as storage stabilizer (in words) [2]: ineffective

Molecule: galactose
effective concentration of stabilizer [1]: 1.25-40 w/v %

Molecule: glucose
effect as storage stabilizer (in words) [2]: ineffective
